pEC50, pIC50: −log10 of the molar value.
Columns and labels:
Assay type in all cases: biochemical
DNMT3b = DNMT3b (Homo sapiens, UniProt Q9UBC3); assay: radiometric methyltransferase assay with recombinant enzyme, Lambda DNA substrate and 3H-SAM
DNMT3a = DNMT3a (Homo sapiens, UniProt Q9Y6K1); assay: as above
[1] = biological target: T1, DNA methyltransferases 1 (DNMT1) (Homo sapiens, UniProt P26358); assay: radiometric methyltransferase assay with recombinant enzyme, poly(dI-dC) and 3H-SAM; activation at low, inhibition at higher concentration (IC50 […])
T1 sequence (P26358 whole entry): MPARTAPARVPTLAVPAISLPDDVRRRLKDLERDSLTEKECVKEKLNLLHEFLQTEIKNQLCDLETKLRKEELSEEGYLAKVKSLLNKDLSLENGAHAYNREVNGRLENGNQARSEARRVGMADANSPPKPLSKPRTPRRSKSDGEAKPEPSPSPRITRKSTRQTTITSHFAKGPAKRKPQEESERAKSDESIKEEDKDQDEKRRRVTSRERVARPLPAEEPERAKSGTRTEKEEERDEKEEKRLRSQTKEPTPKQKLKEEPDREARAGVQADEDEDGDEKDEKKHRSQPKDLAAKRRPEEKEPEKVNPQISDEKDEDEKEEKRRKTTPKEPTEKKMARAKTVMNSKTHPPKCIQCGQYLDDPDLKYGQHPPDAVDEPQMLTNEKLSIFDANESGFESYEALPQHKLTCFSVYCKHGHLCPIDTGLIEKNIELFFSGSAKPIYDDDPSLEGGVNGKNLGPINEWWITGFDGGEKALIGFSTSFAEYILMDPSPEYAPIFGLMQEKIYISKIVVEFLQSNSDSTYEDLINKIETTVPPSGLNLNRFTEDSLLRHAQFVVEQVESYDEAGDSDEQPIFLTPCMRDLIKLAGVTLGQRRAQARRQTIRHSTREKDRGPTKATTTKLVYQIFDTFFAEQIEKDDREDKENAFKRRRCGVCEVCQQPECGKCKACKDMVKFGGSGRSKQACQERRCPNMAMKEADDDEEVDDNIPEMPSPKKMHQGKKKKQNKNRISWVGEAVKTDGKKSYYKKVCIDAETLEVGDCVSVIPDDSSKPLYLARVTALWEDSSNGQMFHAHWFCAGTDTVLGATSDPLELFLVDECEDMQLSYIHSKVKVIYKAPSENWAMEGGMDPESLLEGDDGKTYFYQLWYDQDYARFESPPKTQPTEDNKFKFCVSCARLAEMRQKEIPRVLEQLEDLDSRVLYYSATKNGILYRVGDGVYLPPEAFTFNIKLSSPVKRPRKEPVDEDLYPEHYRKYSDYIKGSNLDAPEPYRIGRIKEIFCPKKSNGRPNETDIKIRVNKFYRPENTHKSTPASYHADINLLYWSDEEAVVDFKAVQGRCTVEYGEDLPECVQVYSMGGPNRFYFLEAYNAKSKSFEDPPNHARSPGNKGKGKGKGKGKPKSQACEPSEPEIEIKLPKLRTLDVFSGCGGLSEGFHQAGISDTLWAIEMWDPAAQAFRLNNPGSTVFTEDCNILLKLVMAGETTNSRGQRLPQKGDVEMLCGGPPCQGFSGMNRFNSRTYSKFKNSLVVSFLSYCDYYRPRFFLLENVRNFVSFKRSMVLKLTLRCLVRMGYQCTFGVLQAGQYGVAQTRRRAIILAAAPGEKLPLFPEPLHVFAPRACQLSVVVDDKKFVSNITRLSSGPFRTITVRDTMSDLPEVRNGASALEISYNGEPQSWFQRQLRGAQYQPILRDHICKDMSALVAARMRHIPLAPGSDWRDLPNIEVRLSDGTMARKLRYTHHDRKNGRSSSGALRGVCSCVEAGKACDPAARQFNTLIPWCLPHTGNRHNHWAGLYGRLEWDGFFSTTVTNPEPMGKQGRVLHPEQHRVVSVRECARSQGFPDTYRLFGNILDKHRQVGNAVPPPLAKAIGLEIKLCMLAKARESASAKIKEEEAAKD

[2] = biological target: T1, DNA methyltransferases 1 (DNMT1); assay: positive control in radiometric DNMT1 assay; […] inhibition at […]

DNMT3a, sequence (Q9Y6K1 whole entry, looked up): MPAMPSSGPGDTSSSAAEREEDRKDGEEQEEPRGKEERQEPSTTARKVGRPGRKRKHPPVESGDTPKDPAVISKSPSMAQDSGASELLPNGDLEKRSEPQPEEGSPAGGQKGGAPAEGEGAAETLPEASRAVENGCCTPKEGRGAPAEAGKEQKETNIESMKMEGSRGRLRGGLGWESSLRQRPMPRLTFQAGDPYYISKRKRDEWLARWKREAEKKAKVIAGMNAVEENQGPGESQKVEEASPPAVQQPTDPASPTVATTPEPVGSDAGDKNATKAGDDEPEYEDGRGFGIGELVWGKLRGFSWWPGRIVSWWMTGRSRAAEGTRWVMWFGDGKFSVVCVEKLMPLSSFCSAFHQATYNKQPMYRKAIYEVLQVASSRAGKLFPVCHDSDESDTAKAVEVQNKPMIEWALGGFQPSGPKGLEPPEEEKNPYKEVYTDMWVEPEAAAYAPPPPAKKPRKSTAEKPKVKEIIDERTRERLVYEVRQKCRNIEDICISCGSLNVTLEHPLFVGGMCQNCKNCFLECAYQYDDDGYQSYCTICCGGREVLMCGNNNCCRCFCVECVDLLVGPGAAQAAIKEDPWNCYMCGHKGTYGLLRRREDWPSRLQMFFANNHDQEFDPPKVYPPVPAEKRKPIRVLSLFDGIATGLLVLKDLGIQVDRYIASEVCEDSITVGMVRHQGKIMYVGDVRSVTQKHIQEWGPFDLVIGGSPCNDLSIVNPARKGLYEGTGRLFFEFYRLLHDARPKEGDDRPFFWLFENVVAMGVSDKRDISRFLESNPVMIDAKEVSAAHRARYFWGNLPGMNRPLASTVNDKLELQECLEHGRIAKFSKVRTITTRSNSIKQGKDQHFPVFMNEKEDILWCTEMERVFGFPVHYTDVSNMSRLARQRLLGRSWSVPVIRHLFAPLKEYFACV

SMILES	pIC50 (DNMT3b)	pIC50 (DNMT3a)	pEC50 [1]	inhibition at 1 µM [2] [%]
C[C@H](CCC[C@@H](C)[C@H]1CC[C@H]2[C@@H]3CC=C4C[C@@H](O)CC[C@]4(C)[C@H]3CC[C@]12C)C(=O)O [CA, Cholestenoic acid]	5.31	5.08	5.70	–
Nc1ncnc2c1ncn2[C@@H]1O[C@H](CSCC[C@H](N)C(=O)O)[C@@H](O)[C@H]1O [S-adenosyl homocysteine]	–	–	–	95

From article PMC11208024, “Cholestenoic acid as endogenous epigenetic regulator decreases hepatocyte lipid accumulation in vitro and in vivo” (American Journal of Physiology - Gastrointestinal and Liver …, 2023)
